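Test compounds were applied to cells in 96-well plates for 48 hours at 5 doses. GI50 is the concentration that inhibits growth by half. TGI: concentration producing complete growth inhibition.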

The test system of one assay is OVCAR-4 ovarian. Kind of assay: DTP human tumour cell line panel, 48 h.
The GI50 is the concentration at which growth is held to half of that of the control. What is called TGI is the concentration giving total growth inhibition. A higher TGI goes with lower sensitivity of the cells. Take `Cc1cc(C)c(NC(=O)c2sc3nc4c(cc3c2N)CN(Cc2ccccc2)CC4)c(C)c1`: the GI50 is 6.72 µM and the concentration for total growth inhibition (TGI) was above 100 µM.
In the case of `Cc1cc(C)nc(NS(=O)(=O)c2ccc(NC(=O)c3cccc4c(Nc5ccc(S(N)(=O)=O)cc5)c5ccccc5nc34)cc2)n1`, the total growth inhibition concentration (TGI) is above 85.5 µM.
`Cc1cc(S(=O)(=O)O)c(NC(=O)C(=O)Cc2cc(=O)oc3cc(O)ccc23)cc1Cl` had a TGI above 100 µM.
In the case of `N#CC1=C(N)Oc2cc(O)ccc2C1c1cccc2ccccc12` (stereo not given), the GI50 is 13.1 µM and the concentration for total growth inhibition (TGI) worked out at 31.5 µM.
Take `C=C1C(=O)O[C@H]2[C@H]1CC/C(COC(=O)/C=C\C(=O)NCc1ccc(Cn3c(=O)sn(CCCC)c3=O)cc1)=C\CC[C@@]1(C)O[C@@H]21`: the GI50 was 0.626 µM and the concentration for total growth inhibition (TGI) worked out at 1.87 µM.

The next assay concerns SNB-19 CNS. Description: DTP human tumour cell line panel, 48 h.
With `Cc1cc(C)c(NC(=O)c2sc3nc4c(cc3c2N)CN(Cc2ccccc2)CC4)c(C)c1`, the GI50 was 7.21 µM and the TGI is above 100 µM.
Regarding `Cc1cc(C)nc(NS(=O)(=O)c2ccc(NC(=O)c3cccc4c(Nc5ccc(S(N)(=O)=O)cc5)c5ccccc5nc34)cc2)n1`, the concentration for total growth inhibition (TGI) was above 100 µM.
In the case of `Cc1cc(S(=O)(=O)O)c(NC(=O)C(=O)Cc2cc(=O)oc3cc(O)ccc23)cc1Cl`, the concentration for total growth inhibition (TGI) is above 100 µM.
In the case of `N#CC1=C(N)Oc2cc(O)ccc2C1c1cccc2ccccc12` (stereo not given), the GI50 was 16.3 µM and the TGI came out at 37.3 µM.
For `C=C1C(=O)O[C@H]2[C@H]1CC/C(COC(=O)/C=C\C(=O)NCc1ccc(Cn3c(=O)sn(CCCC)c3=O)cc1)=C\CC[C@@]1(C)O[C@@H]21`, the GI50 is 1.53 µM and the TGI came to 2.93 µM.

A further assay has as its system SNB-75 CNS. Kind of assay: DTP human tumour cell line panel, 48 h.
Take `Cc1cc(C)c(NC(=O)c2sc3nc4c(cc3c2N)CN(Cc2ccccc2)CC4)c(C)c1`: the GI50 is 2.35 µM and the TGI is 11 µM.
In the case of `Cc1cc(C)nc(NS(=O)(=O)c2ccc(NC(=O)c3cccc4c(Nc5ccc(S(N)(=O)=O)cc5)c5ccccc5nc34)cc2)n1`, the TGI is above 100 µM.
Take `Cc1cc(S(=O)(=O)O)c(NC(=O)C(=O)Cc2cc(=O)oc3cc(O)ccc23)cc1Cl`: the concentration for total growth inhibition (TGI) is above 100 µM.
In the case of `N#CC1=C(N)Oc2cc(O)ccc2C1c1cccc2ccccc12` (stereo not given), the GI50 is 14.1 µM and the TGI stood at 32.9 µM.
`C=C1C(=O)O[C@H]2[C@H]1CC/C(COC(=O)/C=C\C(=O)NCc1ccc(Cn3c(=O)sn(CCCC)c3=O)cc1)=C\CC[C@@]1(C)O[C@@H]21`: the GI50 was 0.697 µM and the TGI stood at 2.19 µM.

The test system of another assay is HCT-15 colon. Kind of assay: DTP human tumour cell line panel, 48 h.
For `Cc1cc(C)c(NC(=O)c2sc3nc4c(cc3c2N)CN(Cc2ccccc2)CC4)c(C)c1`, the GI50 is 2.12 µM and the TGI is above 100 µM.
In turn, `Cc1cc(C)nc(NS(=O)(=O)c2ccc(NC(=O)c3cccc4c(Nc5ccc(S(N)(=O)=O)cc5)c5ccccc5nc34)cc2)n1` registered a TGI above 100 µM.
Take `Cc1cc(S(=O)(=O)O)c(NC(=O)C(=O)Cc2cc(=O)oc3cc(O)ccc23)cc1Cl`: the TGI was above 100 µM.
Take `N#CC1=C(N)Oc2cc(O)ccc2C1c1cccc2ccccc12` (stereo not given): the GI50 is 8.71 µM and the TGI turned out to be 26.9 µM.
For `C=C1C(=O)O[C@H]2[C@H]1CC/C(COC(=O)/C=C\C(=O)NCc1ccc(Cn3c(=O)sn(CCCC)c3=O)cc1)=C\CC[C@@]1(C)O[C@@H]21`, the GI50 is 0.202 µM and the TGI amounted to 0.467 µM.

Another assay relates to LOX IMVI melanoma. Description: DTP human tumour cell line panel, 48 h.
Take `Cc1cc(C)c(NC(=O)c2sc3nc4c(cc3c2N)CN(Cc2ccccc2)CC4)c(C)c1`: the GI50 was 5.01 µM and the TGI came to 18.1 µM.
Molecule `Cc1cc(C)nc(NS(=O)(=O)c2ccc(NC(=O)c3cccc4c(Nc5ccc(S(N)(=O)=O)cc5)c5ccccc5nc34)cc2)n1` came in with a TGI of 99.8 µM.
Still for that read-out and setting: in the case of `Cc1cc(S(=O)(=O)O)c(NC(=O)C(=O)Cc2cc(=O)oc3cc(O)ccc23)cc1Cl` it was above 100 µM.
With `N#CC1=C(N)Oc2cc(O)ccc2C1c1cccc2ccccc12` (stereo not given), the GI50 is 14.8 µM and the TGI came to 35.4 µM.
As to `C=C1C(=O)O[C@H]2[C@H]1CC/C(COC(=O)/C=C\C(=O)NCc1ccc(Cn3c(=O)sn(CCCC)c3=O)cc1)=C\CC[C@@]1(C)O[C@@H]21`, the GI50 is 0.179 µM and the TGI was 0.379 µM.

The next assay relates to HT29 colon. Kind of assay: DTP human tumour cell line panel, 48 h.
As for `Cc1cc(C)c(NC(=O)c2sc3nc4c(cc3c2N)CN(Cc2ccccc2)CC4)c(C)c1`, the GI50 is 2.88 µM and the TGI worked out at 13.2 µM.
Turning to `Cc1cc(C)nc(NS(=O)(=O)c2ccc(NC(=O)c3cccc4c(Nc5ccc(S(N)(=O)=O)cc5)c5ccccc5nc34)cc2)n1`, the concentration for total growth inhibition (TGI) came out at 97.1 µM.
As to `Cc1cc(S(=O)(=O)O)c(NC(=O)C(=O)Cc2cc(=O)oc3cc(O)ccc23)cc1Cl`, the concentration for total growth inhibition (TGI) was above 100 µM.
With `N#CC1=C(N)Oc2cc(O)ccc2C1c1cccc2ccccc12` (stereo not given), the GI50 was 8.89 µM and the TGI stood at 27 µM.
In the case of `C=C1C(=O)O[C@H]2[C@H]1CC/C(COC(=O)/C=C\C(=O)NCc1ccc(Cn3c(=O)sn(CCCC)c3=O)cc1)=C\CC[C@@]1(C)O[C@@H]21`, the GI50 was 0.472 µM and the concentration for total growth inhibition (TGI) was 2.07 µM.

The next assay has as its system CCRF-CEM leukemia. Description: DTP human tumour cell line panel, 48 h.
In the case of `Cc1cc(C)c(NC(=O)c2sc3nc4c(cc3c2N)CN(Cc2ccccc2)CC4)c(C)c1`, the GI50 was 3.16 µM and the TGI came to 59.7 µM.
The molecule `Cc1cc(C)nc(NS(=O)(=O)c2ccc(NC(=O)c3cccc4c(Nc5ccc(S(N)(=O)=O)cc5)c5ccccc5nc34)cc2)n1` yielded a total growth inhibition concentration (TGI) above 25.1 µM.
`Cc1cc(S(=O)(=O)O)c(NC(=O)C(=O)Cc2cc(=O)oc3cc(O)ccc23)cc1Cl` yielded a concentration for total growth inhibition (TGI) above 100 µM.
With `N#CC1=C(N)Oc2cc(O)ccc2C1c1cccc2ccccc12` (stereo not given), the GI50 is 7 µM and the concentration for total growth inhibition (TGI) is 36.9 µM.
For the molecule `C=C1C(=O)O[C@H]2[C@H]1CC/C(COC(=O)/C=C\C(=O)NCc1ccc(Cn3c(=O)sn(CCCC)c3=O)cc1)=C\CC[C@@]1(C)O[C@@H]21`, the GI50 was 0.275 µM and the TGI was found to be 1.63 µM.

For the next assay, the system named is HOP-92 NSCLC. Kind of assay: DTP human tumour cell line panel, 48 h.
For the molecule `Cc1cc(C)c(NC(=O)c2sc3nc4c(cc3c2N)CN(Cc2ccccc2)CC4)c(C)c1`, the GI50 is 0.877 µM and the concentration for total growth inhibition (TGI) was determined as 42.6 µM.
`Cc1cc(C)nc(NS(=O)(=O)c2ccc(NC(=O)c3cccc4c(Nc5ccc(S(N)(=O)=O)cc5)c5ccccc5nc34)cc2)n1`: the total growth inhibition concentration (TGI) amounted to 61.1 µM.
In the case of `Cc1cc(S(=O)(=O)O)c(NC(=O)C(=O)Cc2cc(=O)oc3cc(O)ccc23)cc1Cl`, the TGI was above 100 µM.
Take `N#CC1=C(N)Oc2cc(O)ccc2C1c1cccc2ccccc12` (stereo not given): the GI50 is 3.78 µM and the concentration for total growth inhibition (TGI) is 23.7 µM.
Turning to `C=C1C(=O)O[C@H]2[C@H]1CC/C(COC(=O)/C=C\C(=O)NCc1ccc(Cn3c(=O)sn(CCCC)c3=O)cc1)=C\CC[C@@]1(C)O[C@@H]21`, the GI50 is 0.655 µM and the concentration for total growth inhibition (TGI) is 2.04 µM.

The next assay deals with SK-MEL-2 melanoma. Kind of assay: DTP human tumour cell line panel, 48 h.
`Cc1cc(C)c(NC(=O)c2sc3nc4c(cc3c2N)CN(Cc2ccccc2)CC4)c(C)c1`: the GI50 is 5.59 µM and the total growth inhibition concentration (TGI) was above 100 µM.
In the case of `Cc1cc(C)nc(NS(=O)(=O)c2ccc(NC(=O)c3cccc4c(Nc5ccc(S(N)(=O)=O)cc5)c5ccccc5nc34)cc2)n1`, the total growth inhibition concentration (TGI) was above 31.1 µM.
Molecule `Cc1cc(S(=O)(=O)O)c(NC(=O)C(=O)Cc2cc(=O)oc3cc(O)ccc23)cc1Cl` yielded a TGI above 100 µM.
Consider `N#CC1=C(N)Oc2cc(O)ccc2C1c1cccc2ccccc12` (stereo not given), for which the GI50 was 11.7 µM and the TGI came out at 24.3 µM.
For `C=C1C(=O)O[C@H]2[C@H]1CC/C(COC(=O)/C=C\C(=O)NCc1ccc(Cn3c(=O)sn(CCCC)c3=O)cc1)=C\CC[C@@]1(C)O[C@@H]21`, in that order: 1.67 µM and 3.31 µM.

Another assay relates to MALME-3M melanoma. Kind of assay: DTP human tumour cell line panel, 48 h.
As to `Cc1cc(C)c(NC(=O)c2sc3nc4c(cc3c2N)CN(Cc2ccccc2)CC4)c(C)c1`, the GI50 was 3.44 µM and the total growth inhibition concentration (TGI) came to 42 µM.
In turn, `Cc1cc(C)nc(NS(=O)(=O)c2ccc(NC(=O)c3cccc4c(Nc5ccc(S(N)(=O)=O)cc5)c5ccccc5nc34)cc2)n1` had a concentration for total growth inhibition (TGI) of 55.5 µM.
Same read-out and setting: for `Cc1cc(S(=O)(=O)O)c(NC(=O)C(=O)Cc2cc(=O)oc3cc(O)ccc23)cc1Cl` the value was above 100 µM.
Consider `N#CC1=C(N)Oc2cc(O)ccc2C1c1cccc2ccccc12` (stereo not given), for which the GI50 is 25.8 µM and the concentration for total growth inhibition (TGI) was above 100 µM.
Taken in the same sequence, the figures for `C=C1C(=O)O[C@H]2[C@H]1CC/C(COC(=O)/C=C\C(=O)NCc1ccc(Cn3c(=O)sn(CCCC)c3=O)cc1)=C\CC[C@@]1(C)O[C@@H]21` were 1.35 µM and 2.71 µM.

The values are drawn from PubChem BioAssay (NCI).
